According to US20120283216A1, “FUNGICIDAL 2-(BICYCLIC ARYLOXY)CARBOXAMIDES” (priority 2009, published 2012):

Experiments:
Type in all cases: in vivo
[1] = system: Blumeria graminis f. sp. tritici; assay: Test A: wheat powdery mildew, preventive spray on wheat seedlings, visual disease rating; settings: preventive spray at 40 ppm, rated 8 days after inoculation; for pest or weed control at 40 ppm: Blumeria graminis, 192 h, read-out: Test A disease control rating (100 = 100% disease control, 0 = no disease control relative to the controls)
Description: General protocol for preparing test suspensions for Tests A-C: the test compounds were first dissolved in acetone in an amount equal to 11% of the final volume and then suspended at the desired concentration (in ppm) in acetone and purified water (50/50 mix by volume) containing 250 ppm of the surfactant Trem® 014 (polyhydric alcohol esters). The resulting test suspensions were then used in Tests A-C. Spraying a 40 ppm test suspension to the point of run-off on the test plants was the equivalent of a rate of 800 g/ha. The test suspension was sprayed to the point of run-off on wheat seedlings. The following day the seedlings were inoculated with a spore dust of Blumeria graminis f. sp. tritici, (the causal agent of wheat powdery mildew) and incubated in a growth chamber at 20° C. for 8 days, after which time disease ratings were visually made. Results for Tests A-C are given in Table A. In the Table, a rating of 100 indicates 100% disease control and a rating of 0 indicates no disease control (relative to the controls). A dash (-) indicates no test results. All results are from applications of 40 ppm.

Botrytis cinerea = assay: Test C: tomato botrytis, preventive spray on tomato seedlings, visual disease rating; settings: preventive spray at 40 ppm, rated after 48 h + 3 days; for pest or weed control at 40 ppm: Botrytis cinerea, 120 h, read-out: Test C disease control rating (100 = 100% disease control, 0 = no disease control relative to the controls)
Description: General protocol for preparing test suspensions for Tests A-C: the test compounds were first dissolved in acetone in an amount equal to 11% of the final volume and then suspended at the desired concentration (in ppm) in acetone and purified water (50/50 mix by volume) containing 250 ppm of the surfactant Trem® 014 (polyhydric alcohol esters). The resulting test suspensions were then used in Tests A-C. Spraying a 40 ppm test suspension to the point of run-off on the test plants was the equivalent of a rate of 800 g/ha.
The test suspension was sprayed to the point of run-off on tomato seedlings. The following day the seedlings were inoculated with a spore suspension of Botrytis cinerea (the causal agent of tomato botrytis) and incubated in saturated atmosphere at 20° C. for 48 h, and then moved to a growth chamber at 27° C. for 3 additional days, after which time disease ratings were visually made.
Results for Tests A-C are given in Table A. In the Table, a rating of 100 indicates 100% disease control and a rating of 0 indicates no disease control (relative to the controls). A dash (-) indicates no test results. All results are from applications of 40 ppm.

Septoria tritici = assay: Test B: wheat leaf blotch, preventive spray on wheat seedlings, visual disease rating; settings: preventive spray at 40 ppm, rated after 48 h + 19 days; for pest or weed control at 40 ppm: Zymoseptoria tritici, 504 h, read-out: Test B disease control rating (100 = 100% disease control, 0 = no disease control relative to the controls)
Description: General protocol for preparing test suspensions for Tests A-C: the test compounds were first dissolved in acetone in an amount equal to 11% of the final volume and then suspended at the desired concentration (in ppm) in acetone and purified water (50/50 mix by volume) containing 250 ppm of the surfactant Trem® 014 (polyhydric alcohol esters). The resulting test suspensions were then used in Tests A-C. Spraying a 40 ppm test suspension to the point of run-off on the test plants was the equivalent of a rate of 800 g/ha. The test suspension was sprayed to the point of run-off on wheat seedlings. The following day the seedlings were inoculated with a spore suspension of Septoria tritici (the causal agent of wheat leaf blotch) and incubated in a saturated atmosphere at 20° C. for 48 h, and then moved to a growth chamber at 20° C. for 19 days, after which time disease ratings were visually made. Results for Tests A-C are given in Table A. In the Table, a rating of 100 indicates 100% disease control and a rating of 0 indicates no disease control (relative to the controls). A dash (-) indicates no test results. All results are from applications of 40 ppm.

| Compound | Test A disease control rating (100 = 100% disease control, 0 = no disease control relative to the controls) [1] | Test C disease control rating (100 = 100% disease control, 0 = no disease control relative to the controls) (Botrytis cinerea) | Test B disease control rating (100 = 100% disease control, 0 = no disease control relative to the controls) (Septoria tritici) | pest or weed control at 40 ppm [1] | pest or weed control at 40 ppm (Botrytis cinerea) | pest or weed control at 40 ppm (Septoria tritici) |
| --- | --- | --- | --- | --- | --- | --- |
| C#Cc1ccc2ncc(OC(CC)C(=O)NC(C)(C)CC)cc2c1 (stereo not drawn) [Compound 150] | 96% | 97% | 100% | – | – | – |
| CCC(Oc1cnc2ccc(Cl)cc2c1)C(=O)NC(C)(C)CO (stereo not drawn) [Compound 42] | 0% | 0% | 0% | – | – | – |
| CCC(Oc1ccc2ccc(C#C[Si](C)(C)C)cc2c1)C(=O)NC(C)(C)COC (stereo not drawn) [Compound 96] | 0% | 99% | 100% | – | – | – |
| COCC(C)(C)NC(=O)C(C)Oc1cnc2ccc(I)cc2c1 (stereo not drawn) [Compound 59, 2-[(6-iodo-3-quinolinyl)oxy]-N-(2-methoxy-1,1-dimethylethyl)propanamide] | – | – | – | 0% | 99% | 95% |
| C#Cc1ccc2ncc(OC(CC)C(=O)NCC(C)(C)C)cc2c1 (stereo not drawn) [Compound 153] | 0% | 93% | 92% | – | – | – |
| COCC(C)(C)NC(=O)C(OC)Oc1cnc2ccc(I)cc2c1 (stereo not drawn) [Compound 65] | 81% | 100% | 99% | – | – | – |
| CCC(Oc1cnc2ccc(F)cc2c1)C(=O)NC1(C#N)CC1 (stereo not drawn) [Compound 46] | 0% | 0% | 0% | – | – | – |
| C#CC(C)(C)NC(=O)C(CC)Oc1ccc2ccc(OCOC)cc2c1 (stereo not drawn) [Compound 73] | 0% | 99% | 100% | – | – | – |
| CCOC(Oc1ccc2ccc(Br)cc2c1)C(=O)NC(C)(C)COC (stereo not drawn) [Compound 118] | 0% | 97% | 97% | – | – | – |
| C#CC(C)(C)NC(=O)C(OCC)Oc1ccc2ccc(OCC)cc2c1 (stereo not drawn) [Compound 122] | 0% | 98% | 100% | – | – | – |
| C#CCOc1ccc2ccc(OC(OC)C(=O)NC(C)(C)C)cc2c1 (stereo not drawn) [Compound 131] | 68% | 100% | 100% | – | – | – |
| CCC(Oc1ccc2ccc(OC)cc2c1)C(=O)NC(C)(C)COC (stereo not drawn) [Compound 88] | 99% | 100% | 100% | – | – | – |
| C#CC(C)(C)NC(=O)C(CC)Oc1cnc2ccc(OC)cc2c1 (stereo not drawn) [Compound 147] | 0% | 99% | 99% | – | – | – |
| C#CC(C)(C)NC(=O)C(CC)Oc1ccc2ccc(C(F)F)cc2c1 (stereo not drawn) [Compound 78] | 81% | 99% | 88% | – | – | – |
| CC#Cc1ccc2ccc(OC(OC)C(=O)NC(C)(C)COC)cc2c1 (stereo not drawn) [Compound 108, 2-methoxy-N-(2-methoxy-1,1-dimethylethyl)-2-[[7-(1-propyn-1-yl)-2-naphthalenyl]oxy]acetamide] | – | – | – | 100% | 48% | 100% |
| C#Cc1ccc2ccc(OC(CC)C(=O)NC(C)(C)C)cc2c1 (stereo not drawn) [Compound 109, N-(1,1-dimethylethyl)-2-[(7-ethynyl-2-naphthalenyl)oxy]butanamide] | – | – | – | 100% | 99% | 100% |
| CCC(Oc1ccc2ccc(Br)cc2c1)C(=O)NC(C)(C)CNC=O (stereo not drawn) [Compound 11] | 21% | 100% | 99% | – | – | – |
| CCOCC(C)(C)NC(=O)C(CC)Oc1ccc2ccc(CC)cc2c1 (stereo not drawn) [Compound 139] | 97% | 96% | 47% | – | – | – |
| CCOc1ccc2ccc(OC(CC)C(=O)NC(C)(C)C#N)cc2c1 (stereo not drawn) [Compound 75, N-(1-cyano-1-methylethyl)-2-[(7-ethoxy-2-naphthalenyl)oxy]butanamide] | – | – | – | 100% | 100% | 100% |
| CC(=O)C(Oc1ccc2ccc(Br)cc2c1)C(=O)NC(C)(C)C (stereo not drawn) [Compound 32] | – | – | – | 0% | 26% | 0% |
| CCC(Oc1cnc2ccc(I)cc2c1)C(=O)NC(C)(C)C (stereo not drawn) [Compound 51, N-(1,1-dimethylethyl)-2-[(6-iodo-3-quinolinyl)oxy]butanamide] | – | – | – | 93% | 99% | 100% |
| CCC(Oc1cc2cc(Br)ccc2cn1)C(=O)NC(C)(C)C (stereo not drawn) [Compound 67] | 92% | 100% | 77% | – | – | – |
